# In the supplement of paper PMC10307832:
# Assays:
# Assay in all cases: relative viability (nuclei count vs DMSO), 5 days (fraction); higher = more cells survive
# [1] = compound: O=S(=O)(c1ccccc1)N(CC(F)(F)F)c1ccc(C(O)(C(F)(F)F)C(F)(F)F)cc1 + CC(=O)Nc1cccc(-n2c(=O)n(C3CC3)c(=O)c3c(Nc4ccc(I)cc4F)n(C)c(=O)c(C)c32)c1 [Trametinib] (partner 0.02 µM)
# How it was run: (§1)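 Values are medians from duplicate plates. Each reflects relative viability, defined as the nuclei count of treated wells over that of vehicle wells. Lung cancer cell lines in 1536-well plates were pin-tool dosed one day after seeding with one drug alone or with a fixed anchor-drug dose plus five library-drug doses (not always all listed) in √10 steps, then fixed, stained and imaged at 4× after 5 days.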
# [2] = compound: O=S(=O)(c1ccccc1)N(CC(F)(F)F)c1ccc(C(O)(C(F)(F)F)C(F)(F)F)cc1 + CS(=O)(=O)N1CCN(Cc2cc3nc(-c4cccc5[nH]ncc45)nc(N4CCOCC4)c3s2)CC1 [Pictilisib] (partner 1 µM)
# How it was run: as §1
# RO-3306 + Lapatinib = compound: C1=CC2=C(C=CC(=C2)C=C3C(=O)NC(=NCC4=CC=CS4)S3)N=C1 [RO-3306] + CS(=O)(=O)CCNCc1ccc(-c2ccc3ncnc(Nc4ccc(OCc5cccc(F)c5)c(Cl)c4)c3c2)o1 [Lapatinib] (partner 2 µM)
# How it was run: as §1
# RO-3306 + Phenformin = compound: C1=CC2=C(C=CC(=C2)C=C3C(=O)NC(=NCC4=CC=CS4)S3)N=C1 [RO-3306] + N=C(N)NC(=N)NCCc1ccccc1 [Phenformin] (partner 250 µM)
# How it was run: as §1
Cell Line,relative viability ([1]; first compound 0.8 µM),relative viability ([1]; first compound 2.53 µM),relative viability ([1]; first compound 8 µM),relative viability ([2]; first compound 0.8 µM),relative viability ([2]; first compound 2.53 µM),relative viability ([2]; first compound 8 µM),relative viability (RO-3306 + Lapatinib; first compound 0.01 µM),relative viability (RO-3306 + Lapatinib; first compound 0.03162 µM),relative viability (RO-3306 + Lapatinib; first compound 0.1 µM),relative viability (RO-3306 + Lapatinib; first compound 0.3162 µM),relative viability (RO-3306 + Lapatinib; first compound 1 µM),relative viability (RO-3306 + Phenformin; first compound 0.01 µM),relative viability (RO-3306 + Phenformin; first compound 0.03162 µM),relative viability (RO-3306 + Phenformin; first compound 0.1 µM),relative viability (RO-3306 + Phenformin; first compound 0.3162 µM),relative viability (RO-3306 + Phenformin; first compound 1 µM)
H3255,0.623,0.565,0.649,0.492,0.51,0.396,0.236,0.227,0.245,0.26,0.26,0.392,0.326,0.315,0.32,0.332
HARA,0.561,–,0.634,0.43,0.317,0.293,0.763,0.627,0.758,0.687,0.535,0.471,0.357,0.504,0.429,0.466
HCC-15,0.37,0.302,0.291,0.785,0.684,0.654,0.919,0.779,0.84,0.893,0.592,0.519,0.333,0.459,0.464,0.423
HCC-44,1.01,0.925,0.918,0.657,0.52,0.688,0.976,0.953,0.957,1.07,0.719,0.226,0.21,0.163,0.185,0.196
HCC-78,0.666,0.575,0.689,0.157,0.193,0.252,0.733,0.704,0.732,0.728,0.583,0.705,0.586,0.642,0.723,0.696
HCC-366,0.469,0.335,0.23,0.181,0.165,0.135,1.1,0.939,0.91,1.09,0.759,0.644,0.547,0.65,0.613,0.63
HCC-827,0.527,0.503,0.244,1.08,1.05,1.05,0.226,0.21,0.17,0.214,0.17,0.406,0.308,0.407,0.381,0.408
HOP-62,0.391,0.297,0.355,1.07,0.361,0.763,1.47,0.771,0.93,1.04,1.06,0.694,0.405,0.777,0.714,0.659
LC-2-ad,0.881,0.884,0.758,0.469,0.377,0.437,0.949,0.979,0.868,0.948,0.883,0.538,0.476,0.492,0.614,0.562
LCLC-97TM1,–,0.234,0.165,0.174,0.218,0.187,–,0.794,0.949,1.22,1.09,0.395,0.442,0.45,0.455,0.472
